Results from patent US20250333418A1, “PURINE COMPOUNDS, COMPOSITIONS COMPRISING THEM AND USES THEREOF” (Novo Nordisk A/S, priority 2022, published 2025).

Columns and labels:
human CB1 receptor [1] = target: T1, human CB1 receptor (Homo sapiens, UniProt P21554); assay: bioSensAll GAPL-Gi2 BRET biosensor assay in HEK293 cells transfected with hCB1; test compound added before EC75-80 of agonist CP55,940 (0.1 nM); type: cell-based; conditions: vs CP55,940 0.1 nM (EC75-80), read-out: CB1 wt Gi2 IC50
T1 construct: expressed in transfected cells; host or cells: HEK293
In short: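 Test compounds at 12 doses up to 600 nM preceded a 0.1 nM CP55,940 challenge in hCB1/GAPL-Gi2 HEK293 cells. After overnight 37° C incubation, methoxy e-coelenterazine (2 µM final) was added and the 515/400 nm BRET ratio normalized to positive and negative controls.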

human CB1 receptor [2] = target: T1, human CB1 receptor; assay: bioSensAll β-arrestin2 plasma membrane translocation (+GRK2) BRET biosensor assay in HEK293 cells transfected with hCB1; test compound added before EC75-80 of agonist CP55,940 (100 nM); type: cell-based; conditions: βArrestin2 (+GRK2) BRET biosensor, vs CP55,940 100 nM (EC75-80), read-out: CB1 wt βarr2 IC50
In short: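 Antagonist mode: compound at 12 concentrations up to 600 nM, then 100 nM CP55,940 3–5 min later, on hCB1-transfected HEK293 cells carrying the β-arrestin2 plasma-membrane biosensor plus GRK2. After overnight 37 °C incubation, 515/400 nm BRET ratio measured with 2 µM methoxy e-CTZ and standardized against positive/negative controls.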

T1 sequence (P21554 whole entry): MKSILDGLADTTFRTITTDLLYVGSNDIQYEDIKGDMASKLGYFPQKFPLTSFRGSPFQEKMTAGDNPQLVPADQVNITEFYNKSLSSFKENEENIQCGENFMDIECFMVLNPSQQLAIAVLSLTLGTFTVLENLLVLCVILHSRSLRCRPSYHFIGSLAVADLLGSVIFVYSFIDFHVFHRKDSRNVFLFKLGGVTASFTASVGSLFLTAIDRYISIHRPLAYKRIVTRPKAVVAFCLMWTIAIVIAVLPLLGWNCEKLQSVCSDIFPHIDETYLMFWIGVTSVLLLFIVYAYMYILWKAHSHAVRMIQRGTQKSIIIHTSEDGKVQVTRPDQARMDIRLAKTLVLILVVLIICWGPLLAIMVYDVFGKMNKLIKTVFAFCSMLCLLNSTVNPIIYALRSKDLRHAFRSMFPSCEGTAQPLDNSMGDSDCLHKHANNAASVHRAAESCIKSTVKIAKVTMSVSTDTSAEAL

| Structure (SMILES) | IC50 (human CB1 receptor [1]) [nM] | IC50 (human CB1 receptor [2]) [nM] |
| --- | --- | --- |
| CN1CCC[C@H]1COc1nc(N2CCC(C)(C(N)=O)CC2)c2nc(-c3ccccc3Cl)n(-c3ccc(Cl)cc3)c2n1 [Compound 117, 1-[8-(2-chlorophenyl)-9-(4-chlorophenyl)-2-[[(2S)-1-methylpyrrolidin-2-yl]methoxy]purin-6-yl]-4-methyl-piperidine-4-carboxamide] | 1.64 | 3.76 |
| CC(C)(O)COc1nc(-c2ccc(C(F)(F)F)nc2)c2nc(-c3ccccc3Cl)n(-c3ccc(Cl)cc3)c2n1 [Compound 123] | 0.876 | 2.04 |
| CN(CC(C)(C)O)c1nc(-c2ccc(C(F)(F)F)nc2)c2nc(-c3ccccc3Cl)n(-c3ccc(Cl)cc3)c2n1 [Compound 124] | 3.23 | 12.1 |
| CN(CC1COC1)c1nc(-c2ccc(C(F)(F)F)nc2)c2nc(-c3ccccc3Cl)n(-c3ccc(Cl)cc3)c2n1 [Compound 125] | 4.99 | 16.4 |
| CN(CC1(C)COC1)c1nc(-c2ccc(C(F)(F)F)nc2)c2nc(-c3ccccc3Cl)n(-c3ccc(Cl)cc3)c2n1 [Compound 126] | 8.07 | 20.7 |
| Cc1nc(N2CCC(C)(C(N)=O)CC2)c2nc(-c3ccccc3Cl)n(-c3ccc(Cl)cc3)c2n1 [Compound 127] | 9.42 | 40.9 |
| CN(CC(C)(C)O)c1nc(N2CC(C(N)=O)C2)c2nc(-c3ccccc3Cl)n(-c3ccc(Cl)cc3)c2n1 [Compound 128] | 9.52 | 39.5 |
| CC(C)OC1(C(N)=O)CCN(c2nc(OCC(C)(C)O)nc3c2nc(-c2ccc(C#N)nc2)n3-c2ccc(Cl)cc2)CC1 [Compound 135] | 2.3 | 11.7 |
| CC(C)(O)COc1nc(N2CC(C)(C(N)=O)C2)c2nc(-c3ccc(C#N)nc3)n(-c3ccc(Cl)cc3)c2n1 [Compound 138] | 34.1 | > 5000 |
| N#Cc1ccc(-c2nc3c(N4CC(C(N)=O)C4)nc(N4CCC[C@H]4CO)nc3n2-c2ccc(Cl)cc2)cn1 [Compound 140] | 1.22 | 8.69 |
| CCNC1(C(N)=O)CCN(c2nc(NCCO)nc3c2nc(-c2ccccc2Cl)n3-c2ccc(Cl)cc2)CC1 [Compound 141] | 0.982 | 2.28 |
| CCNC1(C(N)=O)CCN(c2nc(OCCO)nc3c2nc(-c2ccccc2Cl)n3-c2ccc(Cl)cc2)CC1 [Compound 142] | 0.892 | 2.6 |
| CCNC1(C(N)=O)CCN(c2nc(N3CCC[C@H]3CO)nc3c2nc(-c2ccccc2Cl)n3-c2ccc(Cl)cc2)CC1 [Compound 143] | 0.837 | 1.59 |
| CCNC1(C(N)=O)CCN(c2nc(NC(C)=O)nc3c2nc(-c2ccccc2Cl)n3-c2ccc(Cl)cc2)CC1 [Compound 145] | 0.973 | 3 |

Second part, the compound after the results:

| IC50 (human CB1 receptor [1]) [nM] | IC50 (human CB1 receptor [2]) [nM] | Structure (SMILES) |
| --- | --- | --- |
| 6.33 | 13 | CN(CC(C)(C)O)c1nc(N2CCC(C)(C(N)=O)CC2)c2nc(-c3ccc(C#N)nc3)n(-c3ccc(Cl)cc3)c2n1 [Compound 110, 1-[9-(4-chlorophenyl)-8-(6-cyano-3-pyridyl)-2-[(2-hydroxy-2-methyl-propyl)-methyl-amino]purin-6-yl]-4-methyl-piperidine-4-carboxamide] |
| 18.4 | 53.7 | CC(C)(O)CNc1nc(N2CCC(C)(C(N)=O)CC2)c2nc(-c3ccc(C#N)nc3)n(-c3ccc(Cl)cc3)c2n1 [Compound 111, 1-[9-(4-chlorophenyl)-8-(6-cyano-3-pyridyl)-2-[(2-hydroxy-2-methyl-propyl)amino]purin-6-yl]-4-methyl-piperidine-4-carboxamide] |
| 88.3 | 105 | CC(C)(O)COc1nc(N2CC(C)(O)C2)c2nc(-c3ccc(C#N)nc3)n(-c3ccc(Cl)cc3)c2n1 [Compound 112, 5-[9-(4-chlorophenyl)-6-(3-hydroxy-3-methyl-azetidin-1-yl)-2-(2-hydroxy-2-methyl-propoxy)purin-8-yl]pyridine-2-carbonitrile] |
| 7.11 | 15.5 | CC(C)(O)COc1nc(N2CC(C)(C#N)C2)c2nc(-c3ccc(C#N)nc3)n(-c3ccc(Cl)cc3)c2n1 [Compound 113, 5-[9-(4-chlorophenyl)-6-(3-cyano-3-methyl-azetidin-1-yl)-2-(2-hydroxy-2-methyl-propoxy)purin-8-yl]pyridine-2-carbonitrile] |
| 3.87 | 14.1 | COC1(C)CN(c2nc(OCC(C)(C)O)nc3c2nc(-c2ccc(C#N)nc2)n3-c2ccc(Cl)cc2)C1 [Compound 114, 5-[9-(4-chlorophenyl)-2-(2-hydroxy-2-methyl-propoxy)-6-(3-methoxy-3-methyl-azetidin-1-yl)purin-8-yl]pyridine-2-carbonitrile] |
| 17.8 | 93.6 | Cc1cnc(-c2nc3c(N4CCC(C)(C(N)=O)CC4)nc(N(C)CCO)nc3n2-c2ccc(Cl)cc2)n1C [Compound 115, 1-(9-(4-chlorophenyl)-8-(1,5-dimethyl-1H-imidazol-2-yl)-2-((2-hydroxyethyl)(methyl)amino)-9H-purin-6-yl)-4-methylpiperidine-4-carboxamide] |
| 68.8 | > 5000 | CN(C)c1ccc(-c2nc3c(N4CCC(C)(C(N)=O)CC4)nc(OCC(C)(C)O)nc3n2-c2ccc(Cl)cc2)cn1 [Compound 116, 1-[9-(4-chlorophenyl)-8-[6-(dimethylamino)-3-pyridyl]-2-(2-hydroxy-2-methyl-propoxy)purin-6-yl]-4-methyl-piperidine-4-carboxamide] |
| 16.9 | 25.4 | CCOC1(C(N)=O)CCN(c2nc(OCC(C)(C)O)nc3c2nc(-c2ccc(C#N)nc2)n3-c2ccc(Cl)cc2)CC1 [Compound 120, 1-[9-(4-chlorophenyl)-8-(6-cyano-3-pyridyl)-2-(2-hydroxy-2-methyl-propoxy)purin-6-yl]-4-ethoxy-piperidine-4-carboxamide] |
| 2.6 | 17 | CC(C)(O)COc1nc(N2CCC(C)(C(N)=O)CC2)c2nc(-c3ccncc3Cl)n(-c3ccc(Cl)cc3)c2n1 [Compound 121, 1-[9-(4-chlorophenyl)-8-(3-chloro-4-pyridyl)-2-(2-hydroxy-2-methyl-propoxy)purin-6-yl]-4-methyl-piperidine-4-carboxamide] |
| 0.592 | 1.2 | CC1(C(N)=O)CCN(c2nc(N3CCC[C@H]3CO)nc3c2nc(-c2ccc(C#N)nc2)n3-c2ccc(Cl)cc2)CC1 [Compound 130, 1-[9-(4-chlorophenyl)-8-(6-cyano-3-pyridyl)-2-[(2S)-2-(hydroxymethyl)pyrrolidin-1-yl]purin-6-yl]-4-methyl-piperidine-4-carboxamide] |
| 0.713 | 2.95 | CC1(C(N)=O)CCN(c2nc(N3CC[C@@H](O)C3)nc3c2nc(-c2ccc(C#N)nc2)n3-c2ccc(Cl)cc2)CC1 [Compound 131, 1-[9-(4-chlorophenyl)-8-(6-cyano-3-pyridyl)-2-[(3R)-3-hydroxypyrrolidin-1-yl]purin-6-yl]-4-methyl-piperidine-4-carboxamide] |
| 17.8 | > 5000 | CCOC1(C(N)=O)CCN(c2nc(NCC(C)(C)O)nc3c2nc(-c2ccc(C#N)nc2)n3-c2ccc(Cl)cc2)CC1 [Compound 132, 1-[9-(4-chlorophenyl)-8-(6-cyano-3-pyridyl)-2-[(2-hydroxy-2-methyl-propyl)amino]purin-6-yl]-4-ethoxy-piperidine-4-carboxamide] |
| 0.673 | 1.8 | CCOC1(C(N)=O)CCN(c2nc(N3CCC[C@H]3CO)nc3c2nc(-c2ccc(C#N)nc2)n3-c2ccc(Cl)cc2)CC1 [Compound 133, 1-[9-(4-chlorophenyl)-8-(6-cyano-3-pyridyl)-2-[(2S)-2-(hydroxymethyl)pyrrolidin-1-yl]purin-6-yl]-4-ethoxy-piperidine-4-carboxamide] |
| 0.848 | 1.75 | CC(C)OC1(C(N)=O)CCN(c2nc(N3CCC[C@H]3CO)nc3c2nc(-c2ccc(C#N)nc2)n3-c2ccc(Cl)cc2)CC1 [Compound 136, 1-[9-(4-chlorophenyl)-8-(6-cyano-3-pyridyl)-2-[(2S)-2-(hydroxymethyl)pyrrolidin-1-yl]purin-6-yl]-4-isopropoxy-piperidine-4-carboxamide] |
| 7.55 | 58.8 | CCOC1(C(N)=O)CN(c2nc(OCC(C)(C)O)nc3c2nc(-c2ccc(C#N)nc2)n3-c2ccc(Cl)cc2)C1 [Compound 139, 1-[9-(4-chlorophenyl)-8-(6-cyano-3-pyridyl)-2-(2-hydroxy-2-methyl-propoxy)purin-6-yl]-3-ethoxy-azetidine-3-carboxamide] |
| 1.35 | 6.22 | CCNC1(C(N)=O)CCN(c2nc(Cl)nc3c2nc(-c2ccccc2Cl)n3-c2ccc(Cl)cc2)CC1 [Compound 144, 1-(2-chloro-8-(2-chlorophenyl)-9-(4-chlorophenyl)-9H-purin-6-yl)-4-(ethylamino)piperidine-4-carboxamide] |
| 0.718 | 1.62 | CCNC1(C(N)=O)CCN(c2nc(C#N)nc3c2nc(-c2ccccc2Cl)n3-c2ccc(Cl)cc2)CC1 [Compound 146, 1-(8-(2-chlorophenyl)-9-(4-chlorophenyl)-2-cyano-9H-purin-6-yl)-4-(ethylamino)piperidine-4-carboxamide] |
| 4.1 | 88.8 | CCNC1(C(N)=O)CCN(c2nc(C(N)=O)nc3c2nc(-c2ccccc2Cl)n3-c2ccc(Cl)cc2)CC1 [Compound 147, 6-(4-carbamoyl-4-(ethylamino)piperidin-1-yl)-8-(2-chlorophenyl)-9-(4-chlorophenyl)-9H-purine-2-carboxamide] |
